The record followed here is US6949564B2, “NPY-5 antagonists” (Pfizer Inc., priority 2002, dated 2005).

In this experiment the test system is endogenous NPY response (Y1) of human Bowes melanoma cells (HMCB). In words: Block of endogenous NPY response in host human Bowes melanoma cells. Particulars: at 10 uM; host Bowes melanoma cells with low levels of Y1 responses.

Regarding `NC(N)=NCCC[C@@H](NC(=O)C(c1ccccc1)c1ccccc1)C(=O)NCc1ccc(O)cc1` [BIBP3226], the “block of the endogenous NPY response” value is on record as “completely blocks”.
